In US20260317356A1, “SMALL MOLECULE MODULATORS OF OGG1” (AZKARRA THERAPEUTICS, INC., priority 2023, published 2026):

Legend:
nLucOGG1 in HeLa cells = biological target: T1, nLucOGG1 in HeLa cells (Homo sapiens, UniProt O15527); experiment: Cellular Thermal Shift Assay to measure compound affinity for nLucOGG1 in HeLa cells (CETSA DTm); type: cell-based; details: 10 μM compound, 37° C. 60 min, Tm vs DMSO control
T1 construct: thermal shift read by NanoGlo luminescence
Protocol: Biological Example 2: Cellular Thermal Shift Assay to Measure Compound Affinity for ^nLucOGG1 in HeLa Cells (CETSA DTm)
Cell Culture and Transfection of Hela Cells with ^nLucOGG1: For all tests, Hela cells were maintained in growth medium, Dulbecco's Minimum Eagle Medium (Multicell: Cat #319-005-CL) supplemented with 10% heat-inactivated fetal bovine serum (Gibco: Cat #12484-028) at 37° C. and 5% CO2 in a humidified tissue culture incubator. Transient transfections were performed using the Lonza 4-D Nucleofector X unit according to the manufacturer's protocol (Lonza Cat #V4XC-1024). Briefly, for each transfection, 1.2×10^6 cells were centrifuged at 1000 RPM for 5 minutes at room temperature before being diluted in 100 μL SE solution containing 18% v/v supplement and 1.5 μg pNF1-N-empty or pNF1-N-OGG1a vector. The total volume was transferred to a 100 μL nucleofection cuvette prior to transfer to the apparatus where HeLa cell nucleofection protocol CN-114 was executed. Following nucleofection, 500 μL complete media was added to the cells in the cuvette before transferring to a 6-well dish containing 1.5 mL of complete media. Cells were left to incubate for 48 hours before performing all cellular thermal shift experiments.
Cellular Thermal Shift Assays for Target Engagement (CETSA): Forty-eight hours following nucleofection, cells were washed once with DPBS−/−(Multicell: Cat #311-425-CL) and lifted with 0.25% Trypsin-EDTA (Multicell: Cat #325-043-CL) prior to dilution in growth medium and centrifugation at 1000 RPM for 5 minutes at room temperature. The resulting cell pellet was then resuspended in growth medium, cells were counted and the volume adjusted to 500 k cells/mL (2×).
For delta Tm determination, OGG1 inhibitor compounds were dissolved in DMSO to a final working concentration of 20 mM. Working solutions were then diluted in complete media to 20 μM or 0.1% DMSO for the vehicle control (2×). 2×OGG1 inhibitor compound solutions or 0.1% DMSO control were then pre-dispensed into MicroAmp Optical 96-well PCR reaction plates (Applied Biosystems: Cat #4346906) at 50 μL/well. Next, 50 μL or 25 k cells/well from the 2× cell suspension was added to the pre-loaded PCR plates. All plates were prepared as duplicates, covered with adhesive plate sealers (Perkin Elmer: Cat #6050185) and left to incubate at 37° C. for 60 minutes. During incubation, sufficient NanoGlo luciferase assay reagents (Promega: Cat #N1120) were left to equilibrate to room temperature in the dark. Immediately before heating the plates, the NanoGlo substrate was mixed with the NanoGlo buffer at a 1:50 ratio. The thermal cycler (Veriti 96-Well Thermal Cycler, Thermo Fisher Scientific) was allowed to reach the designated temperature prior to placement of the PCR plate into the heating block. For Tm determination experiments, duplicate plates containing a fixed concentration of test compound (10 μM final) as well as vehicle control were prepared to perform a 12-point temperature gradient spanning 37-70° C. for 3 minutes. Therefore, two thermal cycler protocols were set up covering two 6-step temperature gradients ranging from 37-52° C. and 52-70° C. Plates were then allowed to cool at room temperature for 5 minutes after the heat treatment followed by transfer of 75 μL of the reaction into a 96-well white polystyrene microplate (Corning: Cat #CLS3903) and addition of 75 μL of the prepared NanoGlo mixture. Microplates were then left to shake in the dark for 5 minutes before total luminescence was measured on a SpectraMax IX3 plate reader. The luminescence value obtained at each temperature was normalized to the luminescence obtained at 37° C. and the ratio obtained was plotted against the temperature. A Boltzman Sigmoidal non-linear regression was applied to the resulting data to determine Tm values and the difference between the Tm value for a given OGG1 inhibitor relative to the DMSO vehicle control was the delta Tm.

hOGG1 = hOGG1 (Homo sapiens, UniProt O15527); experiment: Biochemical fluorescence assay to measure enzymatic activity of hOGG1 (OGG1/APEX IC50); set-up: Protein His-hOGG1 (12-323) was prepared; His (N); host or cells: E. coli; details: 1 nM OGG1+2 nM APEX+6 nM dsDNA (8-oxo-dG substrate); pH 7.5; RT 40 min; read-out: OGG1/APEX IC50
Summary of the method: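 Coupled glycosylase/AP-endonuclease read-out: 8-oxo-dG-containing dsDNA (6 nM) cleaved by 1 nM His-hOGG1 (12-323) plus 2 nM APEX1 over 40 min at room temperature, after 20 min enzyme–compound preincubation; buffer 20 mM Tris pH 7.5, 100 mM KCl, 0.1% BSA, 0.01% Tween. IC50 comes from sigmoidal 3-parameter fitting of % inhibition derived from TAMRA signal.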

T1 sequence (O15527 whole entry): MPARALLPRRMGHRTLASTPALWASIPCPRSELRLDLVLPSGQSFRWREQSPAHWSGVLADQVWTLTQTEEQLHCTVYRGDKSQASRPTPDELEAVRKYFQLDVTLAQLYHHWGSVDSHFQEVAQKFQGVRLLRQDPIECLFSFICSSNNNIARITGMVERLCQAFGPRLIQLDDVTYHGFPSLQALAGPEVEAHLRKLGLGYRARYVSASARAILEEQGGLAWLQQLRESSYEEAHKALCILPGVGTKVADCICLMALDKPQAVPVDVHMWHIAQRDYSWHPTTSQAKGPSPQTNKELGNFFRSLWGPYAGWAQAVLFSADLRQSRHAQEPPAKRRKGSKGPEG
hOGG1, sequence (O15527 12-323): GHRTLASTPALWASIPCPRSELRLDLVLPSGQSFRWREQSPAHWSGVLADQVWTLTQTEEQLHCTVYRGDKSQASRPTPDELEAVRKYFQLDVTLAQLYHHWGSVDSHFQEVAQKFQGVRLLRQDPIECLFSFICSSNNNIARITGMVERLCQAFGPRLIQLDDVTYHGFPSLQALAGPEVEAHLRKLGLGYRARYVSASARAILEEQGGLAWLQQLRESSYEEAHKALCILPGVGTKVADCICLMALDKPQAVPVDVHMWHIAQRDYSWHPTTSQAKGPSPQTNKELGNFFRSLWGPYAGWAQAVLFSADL

ΔTm at 10 µM (nLucOGG1 in HeLa cells) | IC50 (hOGG1) | SMILES
8 to 10 °C | < 100 nM | COc1cc(NC(=O)[C@H]2CC[C@@H](N3Cc4c(C)cc(N5CC6(COC6)C5)cc4NC3=O)CC2)ccc1C [Example 30, (1s,4s)-N-(3-Methoxy-4-methylphenyl)-4-(5-methyl-2-oxo-7-(2-oxa-6-azaspiro[3.3]heptan-6-yl)-1,2-dihydroquinazolin-3(4H)-yl)cyclohexanecarboxamide]
8 to 10 °C | < 100 nM | COc1cc(NC(=O)[C@H]2CC[C@@H](N3Cc4c(C)cc(-c5nnco5)cc4NC3=O)CC2)ccc1C [Example 92, (1s,4s)-N-(3-methoxy-4-methylphenyl)-4-(5-methyl-7-(1,3,4-oxadiazol-2-yl)-2-oxo-1,2-dihydroquinazolin-3(4H)-yl)cyclohexanecarboxamide]
8 to 10 °C | < 100 nM | COc1cc(NC(=O)[C@H]2CC[C@@H](N3Cc4c(C)ccc(CN)c4NC3=O)CC2)ccc1C [Example 58, (1s,4s)-4-(8-(aminomethyl)-5-methyl-2-oxo-1,2-dihydroquinazolin-3(4H)-yl)-N-(3-methoxy-4-methylphenyl)cyclohexanecarboxamide]
> 10 °C | < 100 nM | COc1cc(NC(=O)[C@H]2CC[C@@H](N3Cc4c(C)cc(CN)cc4NC3=O)CC2)ccc1C [Example 28, (1s,4s)-4-(7-(Aminomethyl)-5-methyl-2-oxo-1,2-dihydroquinazolin-3(4H)-yl)-N-(3-methoxy-4-methylphenyl)cyclohexanecarboxamide]
8 to 10 °C | < 100 nM | COc1cc(NC(=O)[C@H]2CC[C@@H](N3Cc4c(C)ccc(C#N)c4NC3=O)CC2)ccc1C [Example 59, (1s,4s)-4-(8-cyano-5-methyl-2-oxo-1,2-dihydroquinazolin-3(4H)-yl)-N-(3-methoxy-4-methylphenyl)cyclohexanecarboxamide]
6 to 8 °C | 100 to 1000 nM | COc1cc(NC(=O)[C@H]2CC[C@@H](N3Cc4c(C)ccc(N5CC6(COC6)C5)c4NC3=O)CC2)ccc1C [Example 35, (1s,4s)-N-(3-Methoxy-4-methylphenyl)-4-(5-methyl-2-oxo-8-(2-oxa-6-azaspiro[3.3]heptan-6-yl)-1,2-dihydroquinazolin-3(4H)-yl)cyclohexanecarboxamide]
6 to 8 °C | < 100 nM | COc1cc(NC(=O)[C@H]2CC[C@@H](N3Cc4c(C)ccnc4NC3=O)CC2)ccc1C [Example 41, (1s,4s)-N-(3-Methoxy-4-methylphenyl)-4-(5-methyl-2-oxo-1,2-dihydropyrido[2,3-d]pyrimidin-3(4H)-yl)cyclohexanecarboxamide]
6 to 8 °C | < 100 nM | COc1cc(NC(=O)[C@H]2CC[C@@H](N3Cc4c(C)ccc(OC)c4NC3=O)CC2)ccc1C [Example 47, (1s,4s)-N-(3-Methoxy-4-methylphenyl)-4-(8-methoxy-5-methyl-2-oxo-1,2-dihydroquinazolin-3(4H)-yl)cyclohexanecarboxamide]

More lines, now with the values behind:

SMILES | ΔTm at 10 µM (nLucOGG1 in HeLa cells) | IC50 (hOGG1)
COc1cc(NC(=O)[C@]2(C)CC[C@H](N3Cc4c(C)ccc(OC)c4NC3=O)CC2)ccc1C [Example 13, (1s,4s)-N-(3-Methoxy-4-methylphenyl)-4-(8-methoxy-5-methyl-2-oxo-1,2-dihydroquinazolin-3(4H)-yl)-1-methylcyclohexanecarboxamide] | 8 to 10 °C | 100 to 1000 nM
CNCCNc1cc(C)c2c(c1)C(=O)N([C@H]1CC[C@@H](C(=O)Nc3ccc(C)c(OC)c3)CC1)C2 [Example 193, (1s,4s)-N-(3-methoxy-4-methylphenyl)-4-(4-methyl-6-(2-(methylamino)ethylamino)-1-oxoisoindolin-2-yl)cyclohexanecarboxamide] | > 10 °C | < 100 nM
COc1ccc(NC(=O)[C@H]2CC[C@@H](N3Cc4c(C)cccc4C3=O)CC2)cc1C#N [Example 239, (1s,4s)-N-(3-Cyano-4-methoxyphenyl)-4-(4-methyl-1-oxoisoindolin-2-yl)cyclohexanecarboxamide] | 6 to 8 °C | 100 to 1000 nM
COc1ccc(NC(=O)[C@]2(C)CC[C@H](N3Cc4c(C)cccc4NC3=O)CC2)cc1Cl (single isomer, unassigned) [Example 103, (1s,4s)-N-(3-chloro-4-methoxyphenyl)-1-methyl-4-(5-methyl-2-oxo-1,2-dihydroquinazolin-3(4H)-yl)cyclohexanecarboxamide] | 8 to 10 °C | < 100 nM
COc1cc(NC(=O)[C@H]2CC[C@@H](N3Cc4c(C)cnc(CNC(C)=O)c4NC3=O)CC2)ccc1C [Example 19, (1s,4s)-4-(8-(Acetamidomethyl)-5-methyl-2-oxo-1,2-dihydropyrido[3,4-d]pyrimidin-3(4H)-yl)-N-(3-methoxy-4-methylphenyl)cyclohexanecarboxamide] | 8 to 10 °C | < 100 nM
COc1ccc(NC(=O)[C@H]2CC[C@@H](N3Cc4c(C)cc(NCCN(C)C)cc4NC3=O)CC2)cc1C [Example 97, (1s,4s)-4-(7-(2-(dimethylamino)ethylamino)-5-methyl-2-oxo-1,2-dihydroquinazolin-3(4H)-yl)-N-(4-methoxy-3-methylphenyl)cyclohexanecarboxamide] | 8 to 10 °C | < 100 nM
COc1ccc(NC(=O)[C@H]2CC[C@@H](N3Cc4c(C)ccnc4NC3=O)CC2)cc1 [Example 15, (1s,4s)-N-(4-methoxyphenyl)-4-(5-methyl-2-oxo-1,2-dihydropyrido[2,3-d]pyrimidin-3(4H)-yl)cyclohexanecarboxamide] | 6 to 8 °C | 1000 to 10000 nM
COc1ccc(NC(=O)[C@H]2CC[C@@H](N3Cc4c(C)cc(NCCN(C)C)cc4NC3=O)CC2)cc1C#N [Example 99, (1s,4s)-N-(3-cyano-4-methoxyphenyl)-4-(7-(2-(dimethylamino)ethylamino)-5-methyl-2-oxo-1,2-dihydroquinazolin-3(4H)-yl)cyclohexanecarboxamide] | 8 to 10 °C | < 100 nM
COc1cc(NC(=O)[C@H]2CC[C@@H](N3Cc4c(C)ccc(C#N)c4C3=O)CC2)ccc1C [Example 143, (1s,4s)-4-(7-Cyano-4-methyl-1-oxoisoindolin-2-yl)-N-(3-methoxy-4-methylphenyl)cyclohexanecarboxamide] | 6 to 8 °C | < 100 nM
COc1ccc(NC(=O)[C@H]2CC[C@@H](N3Cc4c(C)cc(NCCN(C)C)cc4C3=O)CC2)cc1Cl [Example 260, (1s,4s)-N-(3-Chloro-4-methoxyphenyl)-4-(6-(2-(dimethylamino)ethylamino)-4-methyl-1-oxoisoindolin-2-yl)cyclohexanecarboxamide] | > 10 °C | < 100 nM
COc1ccc(NC(=O)[C@]2(C)CC[C@H](N3Cc4c(C)ccc(OC)c4NC3=O)CC2)cc1C#N (single isomer, unassigned) [Example 9, (1s,4s)-N-(3-cyano-4-methoxyphenyl)-4-(8-methoxy-5-methyl-2-oxo-1,2-dihydroquinazolin-3(4H)-yl)-1-methylcyclohexanecarboxamide] | 8 to 10 °C | < 100 nM
